Laboratory results: article PMC7801616, “Surface hydrophobics mediate functional dimerization of CYP121A1 of Mycobacterium tuberculosis” (Scientific Reports, 2021)
Entries after “also recorded” stand apart in the source; their conditions may differ.

Legend:
[1] = system: I166A_I180A CYP121A1; assay type: binding, Mycobacterium tuberculosis
[2] = system: I166A_I180A CYP121A1 heme thiolate-CO complex
[3] = system: WT CYP121A1 dimer; design: species or system Mycobacterium tuberculosis
[4] = target: WT CYP121A1 (dimeric) (Mycobacterium tuberculosis, UniProt P9WPP7); assay type: binding; details: pH 7.4
[5] = target: I166A_I180A CYP121A1 (monomeric) (Mycobacterium tuberculosis, UniProt P9WPP7, I166A/I180A); assay type: binding

## CC(=O)N1CCN(c2ccc(OCC3COC(Cn4ccnc4)(c4ccc(Cl)cc4Cl)O3)cc2)CC1 (stereo not drawn) [ketoconazole]
[1]
  effect of ligand on thermal stability: modest increase in the stability; also recorded: destabilizing
[2]
  stabilization of the CO-bound 450 nm species: minimal stabilization of the 450 nm species

## Clc1ccc(COC(Cn2ccnc2)c2ccc(Cl)cc2Cl)c(Cl)c1 (stereo not drawn) [miconazole]
[3]
  effect of ligand saturation on dimer migration on gel filtration column: did not cause CYP121A1 to migrate on the column as a monomer

## c1c[nH]cn1 [imidazole]
[4]
  Kd: 46 mM
[5]
  decrease of Kd from dimeric to monomeric CYP121A1: 20 fold
[5]; pH 7.4
  Kd: 2.73 mM
[1]
  effect of ligand on thermal stability: destabilizing

## Clc1ccc(COC(Cn2ccnc2)c2ccc(Cl)cc2Cl)cc1 (stereo not drawn) [econazole]
[3]
  effect of ligand saturation on dimer migration on gel filtration column: did not cause CYP121A1 to migrate on the column as a monomer

## O=C1N[C@@H](Cc2ccc(O)cc2)C(=O)N[C@H]1Cc1ccc(O)cc1 [cYY, cyclo-L-Tyr-L-Tyr]
[2]
  increase of estimated half-life of the heme thiolate-CO complex by presence of substrate: 50 fold
